Measurements as given in US20090156477A1, “Compositions and Methods for Regulating Inflammatory Responses” (Massachusetts Institute of Technology, priority 2005, published 2009).

Assays:
Format in all cases: cell-based, human
Caco-2 cells [1] = test: Caco-2 proliferation assay (whole cell number); details: for increased whole cell number: 100 ng/ml ligand, three days, vs PBS control
Method: (§1) Caco-2 cells were grown to just prior to confluence, and T84 cells were grown to confluence. Each flask was washed with 20 ml PBS and treated with 3 ml trypsin-EDTA at 37° C. for 20-60 minutes until cells detached. Cells were centrifuged for 3 minutes at 195×g. The supernatant was aspirated, and the cells were resuspended in 10 ml media. The cell density was measured using an electronic cell counter, and the suspension was diluted to 50,000 cells/ml. The suspension was plated at 1 ml/well into 12-well tissue culture plates. After a 24 hour incubation in a 5% CO2, 37° C. humidified incubator, the media was aspirated, the wells were washed with serum free media, and the cells were supplemented with media containing 0.1% FBS. The wells were then supplemented with 10 μl PBS, 50 mM sodium chlorate, or 200 μM TM, and incubated for 24 hours. Subsequently, cells were supplemented with 100 ng/ml FGF1, FGF2, FGF7, or 10 μl PBS, and incubated for 72 hours. Wells were then washed twice with PBS and treated with 0.5 ml trypsin-EDTA/well and incubated at 37° C. until cells detached. Whole cell number was determined using an electronic cell counter. Data was averaged over three experiments, each consisting of four wells per condition.

T84 cells [2] = test: Transepithelial resistance (TER) of T84 monolayers; details: for inhibited TER increases: 100 ng/ml ligand, three days (72 hours) after addition, percent reduction in TER compared to PBS treated cells; for reduced resistance on day 5: ligand added on day 0 and day 2, compared to untreated cells
Method: (§2) Caco-2 cells were grown close to confluence, and T84 cells were grown to confluence. The apical chambers of transwell plates with 6.5 mm diameter and 3 μm pore size filters were pretreated with 50 μl of 45 μg/ml collagen IV in 60% ethanol 24 hours prior to plating and incubated overnight at room temperature. After reaching confluence, cells were washed with 20 ml PBS and treated with 3.5 ml trypsin-EDTA per 175 cm^2 flask for 20-60 min at 37° C. until cells detached. Cells were resuspended in 16.5 ml media appropriate to the cell type. Each apical chamber was supplemented with 82 μl cell solution. The basolateral chamber was filled with 1 ml propagation media. Filters were fed with new media every two days over the course of experiments.
(§3) Caco-2 and T84 cells were allowed to grow on transwells to form monolayers. Monolayer formation was examined every other day by light microscopy as well as by transepithelial resistance (TER) measurements using an EVOM ohmmeter (World Precision Instruments, Sarasota, Fla.). After monolayer formation, cells were treated with 100 ng/ml FGF1, 100 ng/ml FGF2, 100 ng/ml FGF7 or an equivalent volume (10 μl) of PBS. TER measurements were made either after 72 hours or at each of the 30 minutes, 1 hour, 2 hours, 4 hours, 9 hours, 24 hours and 48 hours timepoints. To determine the effects of multiple additions of ligand, FGFs or PBS were added initially and again after 2 days, and TER measurements were made after 0, 2 and 5 days.
(§4) To probe the mechanism by which various FGFs induced cell mediated effects, various media treatments were employed. Ammonium tetrathiomolybdate (TM) was added 24 hours prior to the addition of ligands to yield a final concentration of 200 μM, sufficient to prevent the release of FGF1 [3]. Similarly, sodium chlorate, which reduces cell HSPGs and the sulfation of associated HSGAGs, was added 24 hours prior to the addition of ligands to yield a final concentration of 50 mM [33,34]. Antibodies and kinase inhibitors were added immediately prior to ligands. Antibodies to FGF1, FGFR1 and FGFR3 were added at a 1:100 dilution. Kinase inhibitors were added to yield final concentrations of 50 μM LY294002, 20 μM PD98059, 1 μM SB203580. All experiments were performed in triplicate.

Caco-2 cells [3] = test: Transepithelial resistance (TER) of Caco-2 monolayers; details: for inhibited TER increases: 100 ng/ml ligand, three days (72 hours) after addition, percent reduction in TER compared to PBS treated cells; for time after treatment at which reductions in TER were evident: Caco-2 monolayers, TER followed over 48 hours; for reduced resistance on day 5: ligand added on day 0 and day 2, compared to untreated cells
Method: as §2, §3, §4
Caco-2 cells were grown to just prior to confluency. The apical chambers of transwell plates with 6.5 mm diameter and 3 μm pore size filters were pretreated with 50 μl of 45 μg/ml mouse recombinant collagen IV (BD Biosciences, Bedford, Mass.) in 60% ethanol 24 hours prior to plating. Plates were incubated overnight at room temperature. Just prior to confluency, cells were washed with 20 ml phosphate buffered saline (PBS) and treated with 3.5 ml trypsin-EDTA per 175 cm^2 flask for 20-60 min at 37° C., until cells detached. Cells were resuspended in 16.5 ml media appropriate to the cell type. Each apical chamber was supplemented with 82 μl cell solution. The basolateral chamber was filled with 1 ml propagation media. Filters were fed with new media every two days over the course of experiments.
Caco-2 cells were allowed to grow on transwells to form monolayers. Monolayer formation was examined every other day by light microscopy as well as by TER measurements using an EVOM ohmmeter (World Precision Instruments, Sarasota, Fla.). After monolayer formation, cells were treated with 100 ng/ml recombinant human FGF1 (Amgen, Thousand Oaks, Calif.), 100 ng/ml recombinant human FGF2 [1], 100 ng/ml recombinant human FGF7 (Sigma, St. Louis, Mo.), or an equivalent volume (10 μl) of PBS. TER measurements were made after each of 30 minutes, 1 hour, 2 hours, 4 hours, 9 hours, 24 hours and 48 hours.
To probe the mechanism by which various FGFs induced cellular mediated effects, various media treatments were employed. TM was added 24 hours prior to the addition of ligands to yield a final concentration of 200 μM, sufficient to prevent the release of FGF1 [3]. […]

T84 cells [4] = test: T84 proliferation assay (whole cell number); details: for increased whole cell number: 100 ng/ml ligand, three days, vs PBS control
Method: as §1

[5] = TM 200 μM, FGF1 added to TM treated cells

| Molecule | effect of added agent on proliferative effect of FGF2 and FGF7 (Caco-2 cells [1]; [5]) | proliferation (in words) (Caco-2 cells [1]; over three days) | inhibited TER increases (T84 cells [2]) | reduced TER at 48 hours (T84 cells [2]; 100 ng/ml, 48 hours) | effect of added agent on FGF-induced reduction in TER (T84 cells [2]; agent given before or with 100 ng/ml FGFs (TM 200 μM, sodium chlorate 50 mM, LY294002 50 μM, antibodies 1:100)) | inhibited TER increases (Caco-2 cells [3]; Caco-2 cells) | reduced TER at 48 hours (Caco-2 cells [3]; Caco-2 cells, 100 ng/ml, 48 hours) | effect of added agent on FGF-induced reduction in TER (Caco-2 cells [3]; Caco-2 cells, agent given before or with 100 ng/ml FGFs (TM 200 μM, sodium chlorate 50 mM, LY294002 50 μM, PMA 100 ng/ml, antibodies 1:100)) | reduction of TER in TM treated cells (Caco-2 cells [3]; Caco-2 monolayers pretreated with 200 μM TM, all time points beginning at 4 hours) | reduction of TER with the addition of heparin (Caco-2 cells [3]; Caco-2 monolayers pretreated with 50 mM sodium chlorate, heparin 500 ng/ml with ligands, vs PBS) | time after treatment at which reductions in TER were evident (Caco-2 cells [3]; 100 ng/ml) | effect of added agent on proliferative effect of FGF2 and FGF7 (T84 cells [4]; [5]) | proliferation (in words) (T84 cells [4]; over three days) | increased whole cell number (Caco-2 cells [1]) | reduced resistance on day 5 (T84 cells [2]) | reduced resistance on day 5 (Caco-2 cells [3]; Caco-2 cells) | increased whole cell number (T84 cells [4]) |
| --- | --- | --- | --- | --- | --- | --- | --- | --- | --- | --- | --- | --- | --- | --- | --- | --- | --- |
| FGF1: Recombinant human FGF1 from Amgen | restored the proliferative capacity of these ligands | did not induce the proliferation | 30.1±1.5% | 22.7±3.2% | restored TER reductions | 35.1±12.3% | 45.1±5.2% | restored the ability of FGF2 and FGF7 to reduce TER | still elicited significant reductions in TER | reduced TER compared to PBS | 2 h | restored the proliferative capacity of these ligands | did not induce the proliferation | – | – | – | – |
| FGF2: Recombinant human FGF2, produced as described | – | – | 43.4±16.6% | – | – | 67.2±25.8% | – | – | – | – | 4 h | – | – | 20.2±7.4% | 41.7±8.1% | 43.6±11.1% | 24.8±8.8% |
| FGF7: Recombinant human FGF7 from Sigma (protein, UniProt P21781 32-194, looked up) Fibroblast growth factor 7: CNDMTPEQMATNVNCSSPERHTRSYDYMEGGDIRVRRLFCRTQWYLRIDKRGKVKGTQEMKNNYNIMEIRTVAVGIVAIKGVESEFYLAMNKEGKLYAKKECNEDCNFKELILENHYNTYASAKWTHNGGEMFVALNQKGIPVRGKKTKKEQKTAHFLPMAIT | – | – | 54.6±7.6% | – | – | 61.4±17.3% | – | – | – | – | 4 h | – | – | 16.4±8.9% | 37.3±3.5% | 44.4±8.7% | 11.4±3.8% |
